Measurements published in patent publication US10710987B2, “Hydrochloride salt form for EZH2 inhibition” (Epizyme, Inc., priority 2013, dated 2020).

Test: Dynamic vapor sorption (DVS), hygroscopicity
Format: physicochemical
Conditions: for hygroscopicity (DVS, in words): FIGS. 5 and 6
Protocol: Dynamic Vapor Sorption DVS was measured on a VTI Model SGA-100 system. Measurement method: The relative humidity (RH) was changed in a controlled fashion, in 5% steps from 5.0% to 95.0% then back to 5.0% using the gravimetric vapor sorption system, and the weight percentage change (wt %) of the sample at each stage was measured.

Compound	hygroscopicity (DVS, in words)	weight increase (DVS) (upon increasing relative humidity from 5.0% to 95.0%, FIG. 5)	weight gain (DVS) (at 75% relative humidity (RH) at 25° C., FIG. 6)
CCN(c1cc(-c2ccc(CN3CCOCC3)cc2)cc(C(=O)NCc2c(C)cc(C)[nH]c2=O)c1C)C1CCOCC1.Cl [Polymorph C, 4-((3′-(((4,6-Dimethyl-2-oxo-1,2-dihydropyridin-3-yl)methyl)carbamoyl)-5′-(ethyl(tetrahydro-2H-pyran-4-yl)amino)-4′-methyl-[1,1-biphenyl]-4-yl)methyl)morpholin-4-ium chloride]	non-hygroscopic	less than 1.5%	
CCN(c1cc(-c2ccc(CN3CCOCC3)cc2)cc(C(=O)NCc2c(C)cc(C)[nH]c2=O)c1C)C1CCOCC1 [Polymorph A, 4-((3′-(((4,6-Dimethyl-2-oxo-1,2-dihydropyridin-3-yl)methyl)carbamoyl)-5′-(ethyl(tetrahydro-2H-pyran-4-yl)amino)-4′-methyl-[1,1′-biphenyl]-4-yl)methyl)morpholin-4-ium chloride]	some hygroscopicity		4-6%
